Measured values from patent US20150368220A1, “PHARMACEUTICAL COMPOSITION FOR TREATING OR PREVENTING STRESS URINARY INCONTINENCE OR MIXED URINARY INCONTINENCE, AND METHOD FOR SCREENING COMPOUND COMPRISED IN SAID PHARMACEUTICAL COMPOSITION” (Astellas Pharma Inc., priority 2012, published 2015).

Key:
SD female rat [1] = test: Effect on rat blood pressure (Example 6); format: in vivo; conditions: intravenous, at a dose for increasing the urethral pressure, FIGS. 21 and 22
Source text: An SD female rat was anesthetized with urethane and allowed to undergo laparotomy, and then a catheter was mounted in the bladder dome for urine leakage in the bladder. Further, a catheter was mounted in the femoral vein for the administration of a compound and a catheter was mounted in the carotid artery for the measurement of blood pressure described in Example 6 as described later. A microchip transducer catheter (Milar Instruments) was inserted toward the bladder from the external urethral meatus for the measurement of the urethral pressure, and fixed such that the transducer portion was positioned around the portion at which the urethral pressure was maximized (10.0 mm to 15.0 mm from the external urethral meatus). The catheter mounted in the carotid artery was attached to a pressure transducer and the blood pressure was measured.
(2) In the experiment for measuring the urethral pressure in Example 4, the blood pressure was measured simultaneously. After the urethral pressure and the blood pressure were stabilized, the compound was administered and a change in the blood pressure was measured.

isolated bladder = test: Isolated bladder contraction (Example 6); conditions: isolated bladder of SD female rat, cumulative addition
Source text: (§1) (1) The bladder and uterus were isolated from an SD female rat having a body weight of 100 g to 500 g. For the isolated bladder, the parts below the parietal region and the triangular portion were resected to make only the body portion into a ring state, and further, one side of the tissue in the ring state was cut to a band-shaped tissue. The bladder in the band shape was isolated parallel to the median axis of the bladder to prepare strip-shaped specimens having a length of about 10 mm and a width of about 3 mm. The specimens were suspended in a 10 mL tissue bus filled with a Krebs-Henseleit solution (pH 7.4) at a resting tension of 0.5 g and the isometric contraction was recorded. For the isolated uterus, the edge portion of the uterus was cut and incised vertically, whereby a strip-shaped specimen having a width of about 6 mm was then prepared. The specimens were suspended in a 10 mL tissue bus filled with a Krebs—Henseleit solution (pH 7.4) at a resting tension of 0.5 g and the isometric contraction was recorded. […] For the bladder specimen, after the resting tension was stabilized, a 60 mM KCl solution or a 10 μM carbachol solution was added thereto to cause contraction. The specimens were washed and stabilized, and then the compounds were cumulatively administered.

isolated uterus = test: Isolated uterus contraction (Example 6); conditions: isolated uterus of SD female rat
Source text: as §1

human MT1 receptor = target: T1, human MT1 receptor (Homo sapiens, UniProt P48039); test: Intracellular Ca2+ concentration by FLIPR in human MT1 receptor expressing cells (Example 2); format: cell-based; conditions: human MT1 receptor expressing HEK293 cells, 10^-5 M to 10^-12 M, FIGS. 2 and 4
T1 construct: expressed in transfected cells; vector pCDNA3.1/Zeo; co-transfected with a Gq/i chimeric G protein expression vector
Description: (§2) The expression vectors for human MT1 and MT2 receptors were introduced into HEK293 cells, together with a Gq/i chimeric G protein expression vector, respectively. The incorporation was carried out in accordance with instructions, using a Lipofectoamine (registered trademark) 2000 Reagent (Invitrogen Inc.). Using Zeocin and hygromycin as a resistant agent, the cells were cultured for 15 days in the presence of 0.02 mg/mL and 0.05 mg/mL of the agents, respectively, thereby acquiring a drug-resistant clone.
(§3) The respective stably expressing cells were dispensed into 96 wells in a poly-D-lysine-coated plate (Falcon) the day before the experiment to give 40,000 cells/well, and cultured in a DMEM (Invitrogen Inc.) medium containing 10% FBS at 37° C. and 5% CO2 overnight. The medium was replaced with a loading buffer (a washing solution containing 4 μM Fluo-4AM (Dojindo Co.) (Hank's balanced salt solution (HBSS), 20 mM HEPES-NaOH, 2.5 mM probenecid)) and cultured at 37° C. and 5% CO2 for 1 hour.

human MT2 receptor = target: T2, human MT2 receptor (Homo sapiens, UniProt P49286); test: Intracellular Ca2+ concentration by FLIPR in human MT2 receptor expressing cells (Example 2); format: cell-based; conditions: human MT2 receptor expressing HEK293 cells, 10^-5 M to 10^-12 M, FIGS. 3 and 5
T2 construct: expressed in transfected cells; vector pCDNA3.1/Zeo; co-transfected with a Gq/i chimeric G protein expression vector
T2 sequence (P49286 1-362): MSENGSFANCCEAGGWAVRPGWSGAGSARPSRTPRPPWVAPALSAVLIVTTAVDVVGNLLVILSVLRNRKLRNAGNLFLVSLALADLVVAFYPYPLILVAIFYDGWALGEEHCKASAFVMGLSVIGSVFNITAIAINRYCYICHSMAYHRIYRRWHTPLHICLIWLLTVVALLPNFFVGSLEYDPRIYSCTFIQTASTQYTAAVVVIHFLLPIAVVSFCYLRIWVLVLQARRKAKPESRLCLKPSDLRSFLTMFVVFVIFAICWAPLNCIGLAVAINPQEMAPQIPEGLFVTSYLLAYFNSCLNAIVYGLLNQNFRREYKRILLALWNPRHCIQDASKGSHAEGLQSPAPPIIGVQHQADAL
Description: as §2, §3

SD female rat [2] = test: Effect on urethral pressure, perfusion method (Example 4); format: in vivo; conditions: intravenous, anesthetized SD female rat, FIGS. 10 to 14
Description: An SD female rat was anesthetized with urethane and allowed to undergo laparotomy, the bladder dome was then incised, and a catheter having a barb at the tip was inserted toward the urethra from the bladder, and ligated and fixed such that the tip of the catheter was positioned around the proximal urethra. Physiological saline was injected at a predetermined flow rate into the urethra through the catheter and the urethral pressure was measured with a pressure transducer. After the urethral pressure was stabilized, compounds dissolved in physiological saline, or physiological saline containing 5% N,N-dimethylacetamide(DMA) and 0.5% Cremophor were intravenously administered at a dose of 1 μg/kg, 10 μg/kg, 100 μg/kg, or 1000 μg/kg and a change in the urethral pressure was measured.

SD female rat [3] = test: Effect on urethral pressure, microchip method (Example 4); format: in vivo; conditions: intravenous, anesthetized SD female rat, FIGS. 8 and 9
Source text: An SD female rat was anesthetized with urethane and allowed to undergo laparotomy, and then a catheter was mounted in the bladder dome for urine leakage in the bladder. Further, a catheter was mounted in the femoral vein for the administration of a compound and a catheter was mounted in the carotid artery for the measurement of blood pressure described in Example 6 as described later. […] The catheter mounted in the carotid artery was attached to a pressure transducer and the blood pressure was measured.

isolated urethra = test: Urethra contracting action using isolated urethra (Example 3); conditions: isolated urethra of SD female rat, cumulative 10^-5 M to 10^-12 M, FIGS. 6 and 7
Description: The urethra was isolated from an SD female rat having a body weight of 100 g to 500 g. The isolated urethra was incised vertically and then made into strip-shaped specimens having a width of about 3 mm. The specimens were suspended in a 10 mL tissue bus filled with a Krebs—Henseleit solution (pH 7.4) in the circular muscle direction. The Krebs—Henseleit solution was aerated at 95% O2 and 5% CO2, and warmed at 37° C. The resting tension was set to 0.5 g and the isometric contraction was recorded. After the resting tension was stabilized, a 10 μM phenylephrine solution was added thereto to cause contraction.

T1 sequence (P48039 whole entry): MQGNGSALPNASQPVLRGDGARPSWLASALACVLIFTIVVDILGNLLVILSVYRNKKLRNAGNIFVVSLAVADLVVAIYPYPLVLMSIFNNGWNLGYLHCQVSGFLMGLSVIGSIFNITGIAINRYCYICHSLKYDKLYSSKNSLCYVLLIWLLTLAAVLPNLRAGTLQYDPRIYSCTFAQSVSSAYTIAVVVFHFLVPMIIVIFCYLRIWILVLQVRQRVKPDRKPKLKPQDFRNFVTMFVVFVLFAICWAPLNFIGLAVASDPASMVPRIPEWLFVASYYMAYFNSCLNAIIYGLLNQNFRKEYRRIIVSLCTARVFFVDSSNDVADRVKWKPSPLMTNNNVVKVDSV

- intracellular Ca^2+ concentration (melatonin receptor activating action) (human MT1 receptor): increased
- intracellular Ca^2+ concentration (melatonin receptor activating action) (human MT2 receptor): increased
Compound: CCC(=O)NCC[C@@H]1CCc2ccc3c(c21)CCO3 [ramelteon, (S)-N-[2-(1,6,7,8-tetrahydro-2H-indeno[5,4-b]furan-8-yl)ethyl]propionamide]
- effect on blood pressure (mean blood pressure) (SD female rat [1]): did not increase the blood pressure
- contraction action on the isolated bladder (isolated bladder): did not exhibit a contraction action
- effect on the rhythmic contraction of the isolated uterus (isolated uterus; FIG. 20): did not have an effect
- contraction action on the isolated uterus (isolated uterus; cumulative 10^-5 M to 10^-11 M): did not exhibit a contraction action
- urethral pressure increasing action (SD female rat [2]): increased the urethral pressure
- urethral pressure increasing action (SD female rat [3]): increased the urethral pressure
- urethra contracting action (isolated urethra): contracted the isolated urethra
